Test results from US6620833B1, “Substituted benzimidazoles, production and use thereof as agents for combating parasitic protozoas” (Bayer Aktiengesellschaft, priority 1998, dated 2003).

Experiments:
Type in all cases: in vivo
[1] = tested on: Eimeria acervulina, Eimeria maxima and Eimeria tenella; test: Cage experiment on coccidiosis/chicks, mixed experimental infection; conditions: for dropping scores / lesion score: assessment 0 to 6; for mortality n: dead animals/animals employed
Description: 8 to 12 day-old male chicks (e.g. LSL Brinkschulte/Senden) which have been reared coccidia-free receive the compounds according to the invention (test substances) in the concentration indicated in ppm with the feed from 3 days before (day −3) infection (=a.i.) until 8 (9) days after infection (=p.i.). 3 animals are kept in each cage. One or more groups of this type are employed per dose. Infection is carried out by means of a stomach tube directly into the crop with approximately 100,000 sporulated oocysts of Eimeria acervulina and with approximately 30,000 oocysts each of E. maxima and 40,000 sporulated oocysts of E. tenella. These are highly virulent strains. The exact infection dose is adjusted so that, if possible, one of three experimentally infected untreated chicks dies due to the infection. For assessment of the efficacy, the following criteria are taken into account: weight increase from the start of the experiment to the end of the experiment, death rate due to infection, macroscopic assessment of the faeces with respect to diarrhoea and excretion of blood on days 5 and 7 p.i. (assessment 0 to 6), macroscopic assessment of the intestinal mucosa, in particular of the appendices (assessment 0 to 6) and the oocyst excretion as well as the proportion (in %) of the oocysts sporulating in the course of 24 hours. The number of oocysts in the faeces was determined with the aid of a McMaster counting chamber (see Engelbrecht and coworkers “Parasitologische Arbeitsmethoden in Medizin and Veterinärmedizin” [Parasitological Working Methods in Medicine and Veterinary Medicine], Akademie-Verlag, Berlin (1965)). The individual findings are related to the untreated non-infected control groups and a total score is calculated (cf. A. Haberkorn (1986), pp. 263 to 270 in Research in Avian Coccidiosis ed L. R. McDougald, L. P. Joyner, P. L. Long, Proceedings of the Georgia Coccidiosis Conference, Nov. 18-20, 1985. Athens/Georgia USA).
In the column “ppm”, the concentration of the active compound employed in the feed is indicated in ppm.
In the column “mortality” the percentage of the dead animals is indicated under % and the number of dead animals/animals employed in the experiment is indicated under n.
In the column “weight % of not inf. control” the ratio of the weight of the treated animals to the weight of the non-infected control group is indicated.
In the columns “dropping scores”, “lesion score” and “oocyst control”, individual details of the action are given.
In the column “% efficacy”, the total score is assessed; 0% means no action, 100% means full action.

Eimeria acervulina = test: Cage experiment on coccidiosis/chicks, E. acervulina readout; conditions: for Efficacy against Eimeria acervulina: first symbol of cell; for Efficacy against Eimeria acervulina: key: 2=full action; 1=slight action; 0=inactive; D=death
Eimeria maxima = test: Cage experiment on coccidiosis/chicks, E. maxima readout; conditions: for Efficacy against Eimeria maxima: second symbol of cell; for Efficacy against Eimeria maxima: key: 2=full action; 1=slight action; 0=inactive; D=death
Eimeria tenella = test: Cage experiment on coccidiosis/chicks, E. tenella readout; conditions: for Efficacy against Eimeria tenella: third symbol of cell; for Efficacy against Eimeria tenella: key: 2=full action; 1=slight action; 0=inactive; D=death

## CO[C@@H]1[C@@H](OC)[C@H](C)[C@@](O)(CC(=O)O)O[C@H]1[C@H](C)[C@H]1O[C@@]2(CC[C@@](C)([C@H]3CC[C@@](C)([C@@H]4O[C@@H]([C@H]5O[C@](C)(O)[C@H](C)C[C@@H]5C)C[C@@H]4O[C@@H]4C[C@H](OC)[C@@H](OC)[C@H](C)O4)O3)O2)C[C@H](O)[C@H]1C [MAD, Maduramicin, reference compound]
[1]; Table 2, 1 ppm in feed
  % efficacy tot.: 73%
  mortality %: 0%
  oocyst in % of inf. control tot.: 46%
  weight % of not inf. control: 93%
  dropping scores: 1
  lesion score: 2
  mortality n: 0/3
[1]; Table 2, 2 ppm in feed
  % efficacy tot.: 84%
  mortality %: 0%
  oocyst in % of inf. control tot.: 51%
  weight % of not inf. control: 114%
  dropping scores: 0
  lesion score: 2
  mortality n: 0/3
[1]; Table 2, 3 ppm in feed
  % efficacy tot.: 100%
  mortality %: 0%
  oocyst in % of inf. control tot.: 1.3%
  weight % of not inf. control: 112%
  dropping scores: 0
  lesion score: 0
  mortality n: 0/3
Eimeria acervulina; Table 2, 1 ppm in feed
  oocyst in % of inf. control ac.: 8%
Eimeria acervulina; Table 2, 2 ppm in feed
  oocyst in % of inf. control ac.: 8%
Eimeria acervulina; Table 2, 3 ppm in feed
  oocyst in % of inf. control ac.: 1%
Eimeria maxima; Table 2, 1 ppm in feed
  oocyst in % of inf. control max.: 100%
Eimeria maxima; Table 2, 2 ppm in feed
  oocyst in % of inf. control max.: 100%
Eimeria maxima; Table 2, 3 ppm in feed
  oocyst in % of inf. control max.: 0%
Eimeria tenella; Table 2, 1 ppm in feed
  oocyst in % of inf. control ten.: 30%
Eimeria tenella; Table 2, 2 ppm in feed
  oocyst in % of inf. control ten.: 45%
Eimeria tenella; Table 2, 3 ppm in feed
  oocyst in % of inf. control ten.: 3%

## CC[C@@]1([C@@H]2O[C@@H]([C@H]3O[C@@](O)(CO)[C@H](C)C[C@@H]3C)C[C@@H]2C)CC[C@H]([C@]2(C)CC[C@]3(C[C@H](O)[C@@H](C)[C@@H]([C@@H](C)[C@@H](OC)[C@H](C)C(=O)O)O3)O2)O1 [Mon., Monensin, reference compound]
[1]; Table 1, 25 ppm in feed
  % efficacy tot.: 45%
  mortality %: 33%
  oocyst in % of inf. control tot.: 66%
  weight % of not inf. control: 36%
  dropping scores: 6
  lesion score: 6
  mortality n: 1/3
[1]; Table 1, 50 ppm in feed
  % efficacy tot.: 36%
  mortality %: 33%
  oocyst in % of inf. control tot.: 19%
  weight % of not inf. control: 81%
  dropping scores: 6
  lesion score: 6
  mortality n: 1/3
[1]; Table 1, 100 ppm in feed
  % efficacy tot.: 24%
  mortality %: 33%
  oocyst in % of inf. control tot.: 36%
  weight % of not inf. control: 30%
  dropping scores: 6
  lesion score: 6
  mortality n: 1/3
Eimeria acervulina; Table 1, 25 ppm in feed
  oocyst in % of inf. control ac.: 98%
Eimeria acervulina; Table 1, 50 ppm in feed
  oocyst in % of inf. control ac.: 44%
Eimeria acervulina; Table 1, 100 ppm in feed
  oocyst in % of inf. control ac.: 8%
Eimeria maxima; Table 1, 25 ppm in feed
  oocyst in % of inf. control max.: 0%
Eimeria maxima; Table 1, 50 ppm in feed
  oocyst in % of inf. control max.: 0%
Eimeria maxima; Table 1, 100 ppm in feed
  oocyst in % of inf. control max.: 0%
Eimeria tenella; Table 1, 25 ppm in feed
  oocyst in % of inf. control ten.: 100%
Eimeria tenella; Table 1, 50 ppm in feed
  oocyst in % of inf. control ten.: 13%
Eimeria tenella; Table 1, 100 ppm in feed
  oocyst in % of inf. control ten.: 100%

## CCCCN(Cn1c(C(F)(F)F)nc2c(Br)cc3c(c21)OC(F)(F)C(F)(F)O3)C(=O)OCC [Ex. 5]
Eimeria acervulina; Table 4, dose 2.5 ppm
  Efficacy against Eimeria acervulina: 1
Eimeria acervulina; Table 4, dose 5 ppm
  Efficacy against Eimeria acervulina: 1
Eimeria acervulina; Table 4, dose 10 ppm
  Efficacy against Eimeria acervulina: 1
Eimeria maxima; Table 4, dose 2.5 ppm
  Efficacy against Eimeria maxima: 2
Eimeria maxima; Table 4, dose 5 ppm
  Efficacy against Eimeria maxima: 1
Eimeria maxima; Table 4, dose 10 ppm
  Efficacy against Eimeria maxima: 1
Eimeria tenella; Table 4, dose 2.5 ppm
  Efficacy against Eimeria tenella: 1
Eimeria tenella; Table 4, dose 5 ppm
  Efficacy against Eimeria tenella: 1
Eimeria tenella; Table 4, dose 10 ppm
  Efficacy against Eimeria tenella: 2

## CCOC(=O)N(Cn1c(C(F)(F)F)nc2c(Cl)cc3c(c21)OC(F)(F)C(F)(F)O3)C(C)C [Ex. 7]
Eimeria acervulina; Table 4, dose 2.5 ppm
  Efficacy against Eimeria acervulina: 2
Eimeria acervulina; Table 4, dose 5 ppm
  Efficacy against Eimeria acervulina: 2
Eimeria acervulina; Table 4, dose 10 ppm
  Efficacy against Eimeria acervulina: 2
Eimeria maxima; Table 4, dose 2.5 ppm
  Efficacy against Eimeria maxima: 1
Eimeria maxima; Table 4, dose 5 ppm
  Efficacy against Eimeria maxima: 2
Eimeria maxima; Table 4, dose 10 ppm
  Efficacy against Eimeria maxima: 2
Eimeria tenella; Table 4, dose 2.5 ppm
  Efficacy against Eimeria tenella: 2
Eimeria tenella; Table 4, dose 5 ppm
  Efficacy against Eimeria tenella: 2
Eimeria tenella; Table 4, dose 10 ppm
  Efficacy against Eimeria tenella: 1

## CC[C@@H](C(=O)[C@@H](C)[C@@H](O)[C@H](C)[C@@H]1O[C@@H]([C@@H](CC)C(=O)O)CC[C@@H]1C)[C@H]1O[C@]2(C=C[C@@H](O)[C@]3(CC[C@@](C)([C@H]4CC[C@](O)(CC)[C@H](C)O4)O3)O2)[C@H](C)C[C@@H]1C [Sal., Salinomycin, reference compound]
[1]; Table 3, 15 ppm in feed
  mortality %: 100%
  mortality n: 3/3
[1]; Table 3, 30 ppm in feed
  mortality %: 100%
  mortality n: 3/3
[1]; Table 3, 60 ppm in feed
  % efficacy tot.: 67%
  mortality %: 0%
  oocyst in % of inf. control tot.: 12%
  weight % of not inf. control: 106%
  dropping scores: 6
  lesion score: 1.3
  mortality n: 0/3
Eimeria acervulina; Table 3, 60 ppm in feed
  oocyst in % of inf. control ac.: 6%
Eimeria maxima; Table 3, 60 ppm in feed
  oocyst in % of inf. control max.: 0%
Eimeria tenella; Table 3, 60 ppm in feed
  oocyst in % of inf. control ten.: 31%
